{
  "source": "the OPERA property sets (Mansouri et al. 2018)",
  "data": [
    {"settings": "not given", "units": {"solubility": "mM"}, "values": [
      {"smiles": "c1ncncn1", "logP": 0.12},
      {"smiles": "O=c1ccn(C2OC(CO)CC2F)c(=O)[nH]1", "note": "(centres undefined)", "logP": -0.87},
      {"smiles": "COc1ccc(OCCN(C)C)cc1", "logP": 1.23},
      {"smiles": "CC1(C)C=C(C(=O)NCCCN2C(=O)c3ccccc3C2=O)C(C)(C)N1", "logP": 1.58},
      {"smiles": "COc1c(Cl)cc(Cl)cc1Cl", "logP": 4.11},
      {"smiles": "CC(=O)c1c(C)c([N+](=O)[O-])c(C(C)(C)C)c([N+](=O)[O-])c1C", "logP": 4.3, "solubility": 0.00646},
      {"smiles": "CC(C)(C)[C@@H](O)[C@@H](Cc1ccc(Cl)cc1)n1cncn1", "note": "(single isomer, unassigned)", "logP": 3.2},
      {"smiles": "CCCCc1ccc(NC(=O)CN(CC(=O)O)CC(=O)O)cc1Br", "logP": 0.1},
      {"smiles": "N#CCCOc1cccc2ccccc12", "logP": 2.8},
      {"smiles": "O=[N+]([O-])c1cc(C2CCCCC2)c(O)c([N+](=O)[O-])c1", "logP": 4.12},
      {"smiles": "OCc1ccccc1F", "logP": 1.31},
      {"smiles": "CCCN(CCC)C1COc2ccc(O)cc2C1", "note": "(centres undefined)", "logP": 3.19},
      {"smiles": "O=C(CCl)N1CCOCC1", "logP": -0.6},
      {"smiles": "CCCNC(=O)CCC(NS(=O)(=O)c1ccc(C)cc1)C(=O)O", "note": "(centres undefined)", "logP": 0.02},
      {"smiles": "CC(C)c1ccc2c(c1)CC[C@H]1[C@](C)(C(=O)O)CCC[C@]21C", "logP": 4.8, "solubility": 0.022},
      {"smiles": "O=C([O-])c1ccccc1O.[Na+]", "solubility": 781},
      {"smiles": "CC(C)COC(=O)n1c(-c2cscn2)nc2ccccc21", "logP": 3.46},
      {"smiles": "OC(CN1C2CCCCC21)Cn1ccnc1", "note": "(centres undefined)", "logP": 1.07},
      {"smiles": "C#CC(C)(C)NC(=O)c1cc(Cl)cc(Cl)c1", "logP": 3.43}
    ]},
    {"settings": "20 °C", "units": {"solubility": "mM"}, "values": [
      {"smiles": "C=C(C)[C@H]1Cc2c(ccc3c2O[C@@H]2COc4cc(OC)c(OC)cc4[C@@H]2C3=O)O1", "solubility": 0.000507},
      {"smiles": "C=CCOC(C)=O", "solubility": 280},
      {"smiles": "O=c1c(Cl)c(Cl)cnn1-c1ccccc1", "solubility": 0.415},
      {"smiles": "O=C1OC2(c3ccc(O)cc3Oc3cc(O)ccc32)c2ccccc21", "solubility": 0.15},
      {"smiles": "CCCCOCC1CO1", "note": "(centres undefined)", "solubility": 154},
      {"smiles": "CCOP(=S)(OCC)ON=C(C#N)c1ccccc1Cl", "solubility": 0.00511},
      {"smiles": "ClCC(Br)CBr", "note": "(centres undefined)", "solubility": 4.69},
      {"smiles": "CCN(C)N=O", "solubility": 3400},
      {"smiles": "CCCC(C)C(=O)O", "note": "(centres undefined)", "solubility": 129},
      {"smiles": "COc1c(Cl)cc(Cl)cc1Cl", "solubility": 0.0473},
      {"smiles": "CCOS(=O)(=O)OCC", "solubility": 45.4}
    ]},
    {"settings": "23 °C", "units": {"solubility": "mM"}, "values": [
      {"smiles": "CN(N=O)C(N)=O", "solubility": 140},
      {"smiles": "CCOP(=S)(Oc1ccc([N+](=O)[O-])cc1)c1ccccc1", "note": "(centres undefined)", "solubility": 0.00962}
    ]},
    {"settings": "23.0 °C", "values": [
      {"smiles": "O=C/C=C/c1ccccc1", "log10 OH rate constant (cm³/molecule/s)": -10.3},
      {"smiles": "CC(=O)C(C)(C)O", "log10 OH rate constant (cm³/molecule/s)": -12},
      {"smiles": "CCCCOCCOCCO", "log10 OH rate constant (cm³/molecule/s)": -10.1},
      {"smiles": "C=C1CCC=C(C)CC[C@@H]2[C@@H]1CC2(C)C", "log10 OH rate constant (cm³/molecule/s)": -9.7},
      {"smiles": "CCCCCC=O", "log10 OH rate constant (cm³/molecule/s)": -10.5},
      {"smiles": "CC/C=C\\CCO", "log10 OH rate constant (cm³/molecule/s)": -9.96},
      {"smiles": "C=C(F)F", "log10 OH rate constant (cm³/molecule/s)": -11.7}
    ]},
    {"settings": "24 °C", "units": {"solubility": "mM"}, "values": [
      {"smiles": "CCCCN(CC)N=O", "solubility": 92.2}
    ]},
    {"settings": "24.0 °C", "values": [
      {"smiles": "CCOCCC(=O)OCC", "log10 OH rate constant (cm³/molecule/s)": -10.6},
      {"smiles": "Clc1ccccc1-c1ccccc1Cl", "log10 OH rate constant (cm³/molecule/s)": -11.7},
      {"smiles": "COc1ccccc1OC", "log10 OH rate constant (cm³/molecule/s)": -10.5}
    ]},
    {"settings": "25 °C", "units": {"solubility": "mM"}, "values": [
      {"smiles": "CCCCOC(=O)COc1ccc(Cl)cc1Cl", "solubility": 0.166},
      {"smiles": "Clc1ccccc1-c1ccccc1Cl", "solubility": 0.00829},
      {"smiles": "CCCCOC(=O)c1ccccc1", "solubility": 0.331},
      {"smiles": "NNC(=O)c1ccncc1", "solubility": 1020},
      {"smiles": "c1ccoc1", "solubility": 147},
      {"smiles": "C=C(C)C(=O)OCC", "solubility": 47.3},
      {"smiles": "CCc1ccccc1O", "solubility": 43.7},
      {"smiles": "CCOC(=O)COc1ccc(Cl)cc1", "solubility": 3.8},
      {"smiles": "CC(CCc1ccccc1)NCC(O)c1ccc(O)c(C(N)=O)c1", "note": "(centres undefined)", "solubility": 0.356},
      {"smiles": "Cc1ncc(CO)c(CN)c1O", "solubility": 2970},
      {"smiles": "O=C(O)C(Br)(Br)Br", "solubility": 674},
      {"smiles": "ClCC(Cl)CCl", "solubility": 11.9},
      {"smiles": "CCOC(C)=O", "solubility": 908},
      {"smiles": "OCc1cccc2ccccc12", "solubility": 18},
      {"smiles": "CCCc1ccccc1", "solubility": 0.434},
      {"smiles": "CCS(=O)(=O)c1cccnc1S(=O)(=O)NC(=O)Nc1nc(OC)cc(OC)n1", "solubility": "< 0.0232"},
      {"smiles": "Nc1nc[nH]n1", "solubility": 3330},
      {"smiles": "CCC(=O)OCC(C)C", "solubility": 13.1},
      {"smiles": "Cc1cc(C)c(C)c(O)c1", "solubility": 5.59},
      {"smiles": "Cc1cccc(Oc2ccc([N+](=O)[O-])cc2)c1", "solubility": 0.0218},
      {"smiles": "CCOP(=O)(N=C1SCCS1)OCC", "solubility": 2.55},
      {"smiles": "CCOC(=O)N(C)N=O", "solubility": 280},
      {"smiles": "Cc1ccccc1C", "solubility": 1.68},
      {"smiles": "CCCCC(C)CCC", "note": "(centres undefined)", "solubility": 0.000897},
      {"smiles": "ClC(Cl)=C(Cl)C(Cl)=C(Cl)Cl", "solubility": 0.0123}
    ]},
    {"settings": "25.0 °C", "values": [
      {"smiles": "C=CCOC(C)=O", "log10 OH rate constant (cm³/molecule/s)": -10.6},
      {"smiles": "FC(F)(F)I", "log10 OH rate constant (cm³/molecule/s)": -13.3},
      {"smiles": "CCCCOCC=O", "log10 OH rate constant (cm³/molecule/s)": -10.7},
      {"smiles": "COC(F)(F)C(F)(F)C(F)(F)F", "log10 OH rate constant (cm³/molecule/s)": -13.9},
      {"smiles": "Cc1cc2ccccc2cc1C", "log10 OH rate constant (cm³/molecule/s)": -10.2},
      {"smiles": "Cc1ccccc1C", "log10 OH rate constant (cm³/molecule/s)": -10.9},
      {"smiles": "CC(=O)C=CC=O", "log10 OH rate constant (cm³/molecule/s)": -10.3},
      {"smiles": "O=CF", "log10 OH rate constant (cm³/molecule/s)": -14.4},
      {"smiles": "CCOS(=O)(=O)OCC", "log10 OH rate constant (cm³/molecule/s)": -11.7},
      {"smiles": "CCCC=O", "log10 OH rate constant (cm³/molecule/s)": -10.6}
    ]},
    {"settings": "26 °C", "units": {"solubility": "mM"}, "values": [
      {"smiles": "CCNc1nc(O)nc(NC(C)C)n1", "solubility": 0.0299}
    ]},
    {"settings": "27.0 °C", "values": [
      {"smiles": "CC(=O)N(C)C", "log10 OH rate constant (cm³/molecule/s)": -10.9}
    ]},
    {"settings": "28 °C", "units": {"solubility": "mM"}, "values": [
      {"smiles": "O=C(O)Cc1c(Cl)ccc(Cl)c1Cl", "solubility": 0.835}
    ]},
    {"settings": "30 °C", "units": {"solubility": "mM"}, "values": [
      {"smiles": "BrC(Br)(Br)Br", "solubility": 0.724}
    ]}
  ]
}
